Values quoted from earlier work in patent US8188047B2, “Therapeutic and cosmetic compositions for treatment of skin” (priority 2009, dated 2012).

Settings: typically

SMILES: FC1(F)C(F)(F)C(F)(F)C2(F)C(F)(F)C(F)(F)C(F)(F)C(F)(F)C2(F)C1(F)F (stereo not shown) [perfluorodecalin]
- stable up to (temperature): up to 400 °C
